Reference: US20240299385A1 (ReWind Therapeutics NV, priority 2021, published 2024)

Target: T1, human GPR17 receptor (Homo sapiens, UniProt Q13304)
T1 construct: host or cells: HEK-293
Experiment: Calcium mobilization functional assay (Fluo-8, FLIPR TETRA) in HEK-293 hGPR17 (Gα-q assay)
Type: cell-based
Details: antagonism of MDL29,951 (~EC80) induced Ca2+ signal; cell line (HEK-293 hGPR17 or HEK-293 Suchi5 hGPR17) not given
Method in brief: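 Fluo-8-loaded HEK-293 hGPR17 cells (60 min dye loading, room temperature) were preincubated with compound for twenty minutes, then challenged with agonist MDL29,951 at ~EC80, 500 nM. Intracellular calcium release via Gα-q was recorded as FLIPR fluorescence for a further 2 minutes; compounds tested in duplicate.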

T1 sequence (Q13304 whole entry): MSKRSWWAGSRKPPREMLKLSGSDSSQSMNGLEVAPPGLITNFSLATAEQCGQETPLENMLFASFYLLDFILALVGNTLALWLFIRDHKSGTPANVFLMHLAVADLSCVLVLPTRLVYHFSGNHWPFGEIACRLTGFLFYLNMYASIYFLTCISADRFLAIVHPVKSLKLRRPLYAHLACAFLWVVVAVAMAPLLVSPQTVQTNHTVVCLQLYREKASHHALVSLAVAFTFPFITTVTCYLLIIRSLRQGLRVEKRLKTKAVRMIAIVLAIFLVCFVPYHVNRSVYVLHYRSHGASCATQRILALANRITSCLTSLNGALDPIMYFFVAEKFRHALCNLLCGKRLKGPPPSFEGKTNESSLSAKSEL

Structure (SMILES) | IC50 [nM]
Cc1cc(NS(=O)(=O)c2c[nH]c(-c3ccccn3)c2)c(F)cc1C(F)(F)F [Cpd 336, N-[2-fluoro-5-methyl-4-(trifluoromethyl)phenyl]-5-(2-pyridyl)-1H-pyrrole-3-sulfonamide] | 500 to 5000
Cc1cccc(-c2cc(S(=O)(=O)Nc3cc(F)c(C(F)(F)F)cc3F)c[nH]2)c1 [Cpd 337, N-[2,5-difluoro-4-(trifluoromethyl)phenyl]-5-(m-tolyl)-1H-pyrrole-3-sulfonamide] | 500 to 5000
Cc1cc(NS(=O)(=O)c2c[nH]c(-c3ccccc3)c2)c(F)cc1C(F)(F)F [Cpd 338, N-[2-fluoro-5-methyl-4-(trifluoromethyl)phenyl]-5-phenyl-1H-pyrrole-3-sulfonamide] | 500 to 5000
O=S(=O)(Nc1cc(F)c(C(F)(F)F)cc1F)c1c[nH]c(-c2nccs2)c1 [Cpd 339, N-[2,5-difluoro-4-(trifluoromethyl)phenyl]-5-thiazol-2-yl-1H-pyrrole-3-sulfonamide] | < 500
N#Cc1ccc(NS(=O)(=O)c2c[nH]cc2Cc2cccc(OC3CC3)c2)c(F)c1 [Cpd 340, N-(4-cyano-2-fluoro-phenyl)-4-[[3-(cyclopropoxy)phenyl]methyl]-1H-pyrrole-3-sulfonamide] | 500 to 5000
CC(C)Oc1cccc(Cc2c[nH]cc2S(=O)(=O)Nc2ccc(C#N)cc2F)c1 [Cpd 341, N-(4-cyano-2-fluoro-phenyl)-4-[(3-isopropoxyphenyl)methyl]-1H-pyrrole-3-sulfonamide] | 500 to 5000
N#Cc1ccc(NS(=O)(=O)c2c[nH]cc2Cc2cccc(OCC3CC3)c2)c(F)c1 [Cpd 342, N-(4-cyano-2-fluoro-phenyl)-4-[[3-(cyclopropylmethoxy)phenyl]methyl]-1H-pyrrole-3-sulfonamide] | 500 to 5000
N#Cc1ccc(NS(=O)(=O)c2c[nH]cc2Cc2cccs2)c(F)c1 [Cpd 343, N-(4-cyano-2-fluoro-phenyl)-4-(2-thienylmethyl)-1H-pyrrole-3-sulfonamide] | < 500
O=S(=O)(Nc1cc(F)c(C(F)(F)F)cc1F)c1c[nH]c(-c2cccc(C(F)(F)F)n2)c1 [Cpd 344, N-[2,5-difluoro-4-(trifluoromethyl)phenyl]-5-[6-(trifluoromethyl)-2-pyridyl]-1H-pyrrole-3-sulfonamide] | 500 to 5000
O=S(=O)(Nc1cc(F)c(C(F)(F)F)cc1F)c1c[nH]c(-c2ccc(Br)cn2)c1 [Cpd 345, 5-(5-bromo-2-pyridyl)-N-[2,5-difluoro-4-(trifluoromethyl)phenyl]-1H-pyrrole-3-sulfonamide] | 500 to 5000
O=S(=O)(Nc1cc(F)c(C(F)(F)F)cc1F)c1c[nH]c(-c2ncccc2Br)c1 [Cpd 346, 5-(3-bromo-2-pyridyl)-N-[2,5-difluoro-4-(trifluoromethyl)phenyl]-1H-pyrrole-3-sulfonamide] | < 500
N#Cc1ccc(NS(=O)(=O)c2c[nH]c(-c3ccc(F)cn3)c2)c(F)c1 [Cpd 347, N-(4-cyano-2-fluoro-phenyl)-5-(5-fluoro-2-pyridyl)-1H-pyrrole-3-sulfonamide] | 500 to 5000
Cc1cccnc1-c1cc(S(=O)(=O)Nc2ccc(C#N)cc2F)c[nH]1 [Cpd 348, N-(4-cyano-2-fluoro-phenyl)-5-(3-methyl-2-pyridyl)-1H-pyrrole-3-sulfonamide] | < 500
N#Cc1ccc(NS(=O)(=O)c2c[nH]c(-c3ncccc3Cl)c2)c(F)c1 [Cpd 349, 5-(3-chloro-2-pyridyl)-N-(4-cyano-2-fluoro-phenyl)-1H-pyrrole-3-sulfonamide] | < 500
N#Cc1ccc(NS(=O)(=O)c2c[nH]c(-c3ncccc3Br)c2)c(F)c1 [Cpd 350, 5-(3-bromo-2-pyridyl)-N-(4-cyano-2-fluoro-phenyl)-1H-pyrrole-3-sulfonamide] | < 500
O=S(=O)(Nc1cc(F)c(C(F)(F)F)cc1F)c1c[nH]c(-c2ccccc2Cl)c1 [Cpd 351, 5-(2-chlorophenyl)-N-[2,5-difluoro-4-(trifluoromethyl)phenyl]-1H-pyrrole-3-sulfonamide] | 500 to 5000
